Read-outs that look alike come from different tables or passages of the source.
How the values were obtained:
[1] = tested on: endothelial derived biomarkers; test: Healthy volunteer study, 2 hours i.v. Ilomedin infusion: plasma endothelial derived biomarkers by ELISA; assay type: in vivo, human; settings: 1 ng/kg/min i.v. for 2 hours
Description: Blood samples for endothelial function were collected at the following time-points: Before the infusion (0 h), after 30 min infusion (30 min), immediately after ceasing the infusion (2 h) and 2 hours after the end of iloprost infusion. Endothelial function was evaluated by measuring plasma levels of endothelial derived biomarkers by commercially available ELISA kits. Biomarkers indicating: Endothelial glycocalyx damage (syndecan-1), endothelial cell damage (thrombomodulin) and endothelial cell anticoagulation (protein C) were investigated. Furthermore, we measured plasma concentration of prostacyclin (FIG. 3).

[2] = Randomized placebo controlled trial of 24 hours i.v. Ilomedin in AMI PCI patients: hemodynamics and bleeding events; assay type: in vivo, human; settings: 0.5 ng/kg/min i.v. for 24 hours, during or after infusion
Description: (§1) Ilomedin® (iloprost, prostacyclin analog) infusion at a dose of 0.5 ng/kg/min compared to placebo in 17 patients with acute myocardial infarction (AMI) undergoing percutanuous coronary intervention (PCI) with stent implantation [Holmvang et al 2012]. Patients randomized to 24 hours active (n=9) or placebo (n=8) therapy were evaluated for hemodynamics, bleeding events and for functional whole blood hemostasis (Multiplate, TEG) and endothelial function in blood sampled before iloprost infusion (baseline), during infusion (1 h, 6 h and 24 h) and 24 hours after ceasing iloprost infusion (48 h). Bleeding was evaluated by GUSTO criteria (severe, moderate, mild, none) and hemostasis was evaluated by Multiplate and TEG according to the manufactures recommendations. Endothelial function was evaluated by measuring plasma levels of endothelial derived biomarkers by commercially available ELISA kits. Biomarkers indicating: Endothelial glycocalyx damage (syndecan-1), endothelial cell damage (thrombomodulin), endothelial cell activation (sE-selectin, ICAM-1) and anticoagulation (protein C) were investigated.

[3] = tested on: functional whole blood hemostasis; test: Randomized placebo controlled trial of 24 hours i.v. Ilomedin in AMI PCI patients: Multiplate, TEG; assay type: in vivo, human; settings: 0.5 ng/kg/min i.v. for 24 hours, during or after infusion
Description: The inventors conducted a randomized placebo controlled double blind clinical trial investigating safety and efficacy of 24 hours i.v. Ilomedin® (iloprost, prostacyclin analog) infusion at a dose of 0.5 ng/kg/min compared to placebo in 17 patients with acute myocardial infarction (AMI) undergoing percutanuous coronary intervention (PCI) with stent implantation [Holmvang et al 2012]. Patients randomized to 24 hours active (n=9) or placebo (n=8) therapy were evaluated for hemodynamics, bleeding events and for functional whole blood hemostasis (Multiplate, TEG) and endothelial function in blood sampled before iloprost infusion (baseline), during infusion (1 h, 6 h and 24 h) and 24 hours after ceasing iloprost infusion (48 h).

[4] = tested on: endothelial derived biomarkers; test: Randomized placebo controlled trial of 24 hours i.v. Ilomedin in AMI PCI patients: plasma endothelial derived biomarkers by ELISA; assay type: in vivo, human; settings: 0.5 ng/kg/min i.v. for 24 hours, baseline to 48 h
Description: as §1

[5] = Whipple surgery patients
Description: The inventors conducted a randomized placebo controlled double blind clinical trial investigating safety and efficacy of intra- and post-operative i.v. Ilomedin® (iloprost, prostacyclin analog) infusion at a dose of 1 ng/kg/min compared to placebo in 16 patients undergoing whipple surgery at Rigshospitalet, a tertiary level teaching University hospital in Copenhagen, Denmark. The inclusion criteria were adults (age […]) undergoing whipple surgery based on surgical indication due to cancer/dysplasia, familial adenomatous polyposis or inflammation/pancreatitis.
Data on demography, co-morbidities, surgical time and 28-day mortality were assessed. Hemodynamics were measured continuously (heart rate (HR), systolic, diastolic and mean arterial pressure (SBT, DBT, MAP)) or at baseline, end of surgery and 6 h and 24 h post-operative (systemic vascular resistance (SVR), stroke volume (SV), central venous pressure (CVP)). The volume and number of units of red blood cells (RBC), plasma and platelet concentrates administered were recorded at the end of surgery, 6 h and 24 h post-operative. Bleeding volume was assessed intra-operative and 6 h and 24 h post-operative. The volume of crystalloids and colloids (only albumin was allowed) was, together with urine output, recorded intra-operative and 6 h and 24 h post-operative.
Blood samples for evaluation of functional whole blood hemostasis (TEG) and endothelial function were collected pre-commencing infusion with study drug (baseline), at the end of surgery (post-op) and 6 h after surgery just before ceasing study drug infusion (6 h). Blood samples for routine biochemistry (hemoglobin, creatinine and lactate) were collected at baseline, post-op and 6 h and 24 h post-operative.

[6] = tested on: functional whole blood hemostasis; test: Randomized placebo controlled trial of i.v. Ilomedin in Whipple surgery patients: TEG; assay type: in vivo, human
Description: (§2) TEG was performed according to the manufactures recommendations. Endothelial function was evaluated by measuring plasma levels of endothelial derived biomarkers by commercially available ELISA kits. Biomarkers indicating: Endothelial glycocalyx damage (syndecan-1), endothelial cell damage (thrombomodulin) and necrosis (nucleosomes) were investigated.

[7] = tested on: endothelial derived biomarkers; test: Randomized placebo controlled trial of i.v. Ilomedin in Whipple surgery patients: plasma endothelial derived biomarkers by ELISA; assay type: in vivo, human; settings: 1 ng/kg/min i.v.
Description: as §2

[8] = tested on: clot formation and platelet aggregation; test: Functional whole blood hemostatic assays (TEG, Multiplate) under low-dose prostacyclin infusion; assay type: in vivo, human
Excerpt: However, as for the vasodilatory effect, the antiaggretory effect is highly dose-dependent [Moncada et al 1976; O'Grady et al 1980]. […] The term “thrombelastography” or “TEG” refers to a commercially available viscoelastic whole blood hemostasis assay employing citrated or non-anticoagulated blood. The TEG analyzer uses a small whole blood sample in a rotating cup and a pin suspended in the blood by a torsion wire, which is monitored for motion. To speed up the clot formation, a standardized amount of an activator of coagulation (e.g. kaolin, tissue factor) may be added to the cup just before the pin is placed in the cup. The TEG assay is suitable for determining important parameters in the clotting activity (clot initiation time, clot build up dynamics), clot strength (maximum amplitude (MA)) and clot degradation (fibrinolysis). The TEG system's approach to monitoring patient hemostasis is based on the premise that the end result of the hemostatic process is the clot. The clot's physical properties determine whether the patient will have normal hemostasis, or will be at increased risk for hemorrhage or thrombosis. The term “Multiplate” refers to a commercially available impedance aggregometry based whole blood platelet function analyzer employing anti-coagulated blood. The Multiplate analyzer uses a small whole blood sample in a chamber with two pairs of platinum electrodes. Standardized platelet agonists are added to the blood in the chamber to investigate specific platelet activation/signaling pathways. The Multiplate assay is based on the attachment of platelets on two platinum electrodes, resulting in an increase of electrical resistance between the electrodes.

[9] = Healthy volunteer study, 2 hours i.v. Flolan infusion: hemodynamics; assay type: in vivo, human; settings: eight healthy male volunteers; 4 ng/kg/min i.v. for 2 hours; any time point
Description: The study was conducted investigating the influence of 2 hours i.v. Flolan® (epoprostenol sodium, prostacyclin analog) infusion at a dose of 4 ng/kg/min in eight healthy male volunteers.

whole blood hemostasis = test: Healthy volunteer study, 2 hours i.v. Flolan infusion: Multiplate and TEG; assay type: in vivo, human; settings: eight healthy male volunteers; 4 ng/kg/min i.v. for 2 hours
Excerpt: The term “thrombelastography” or “TEG” refers to a commercially available viscoelastic whole blood hemostasis assay employing citrated or non-anticoagulated blood. The TEG analyzer uses a small whole blood sample in a rotating cup and a pin suspended in the blood by a torsion wire, which is monitored for motion. To speed up the clot formation, a standardized amount of an activator of coagulation (e.g. kaolin, tissue factor) may be added to the cup just before the pin is placed in the cup. The TEG assay is suitable for determining important parameters in the clotting activity (clot initiation time, clot build up dynamics), clot strength (maximum amplitude (MA)) and clot degradation (fibrinolysis). The TEG system's approach to monitoring patient hemostasis is based on the premise that the end result of the hemostatic process is the clot. The clot's physical properties determine whether the patient will have normal hemostasis, or will be at increased risk for hemorrhage or thrombosis. The term “Multiplate” refers to a commercially available impedance aggregometry based whole blood platelet function analyzer employing anti-coagulated blood. The Multiplate analyzer uses a small whole blood sample in a chamber with two pairs of platinum electrodes. Standardized platelet agonists are added to the blood in the chamber to investigate specific platelet activation/signaling pathways. […]

[10] = tested on: endothelial derived biomarkers; test: Healthy volunteer study, 2 hours i.v. Flolan infusion: plasma endothelial derived biomarkers by ELISA; assay type: in vivo, human; settings: healthy volunteers, 4 ng/kg/min i.v. for 2 hours
Description: The study was conducted investigating the influence of 2 hours i.v. Flolan® (epoprostenol sodium, prostacyclin analog) infusion at a dose of 4 ng/kg/min in eight healthy male volunteers. Endothelial function was evaluated in the study e.g. by measuring plasma levels of endothelial derived biomarkers by commercially available ELISA kits. Biomarkers indicating: Endothelial glycocalyx damage (syndecan-1), endothelial cell damage (thrombomodulin) or necrosis (nucleosomes, HMGB1), endothelial cell activation (PAI-1) and endothelial cell anticoagulation (protein C, antithrombin) were investigated (FIG. 2).

[11] = Retrospective study of critically ill ICU patients on CRRT with pre-filter Flolan or heparin; assay type: in vivo, human; settings: for 90-day mortality / 365-day mortality / platelet count during CRRT: agent given in the dialysis filter; for 30-day mortality: agent given in the dialysis filter (Flolan 5 ng/kg/min)
Description: The inventors conducted a retrospective study of critically ill patients treated or not treated with prostacyclin infusion during their intensive care unit (ICU) stay [Windelov et al 2010]. Ninety-four critically ill patients admitted to the ICU for medical or surgical complications, underwent hemofiltration (continuous renal replacement therapy, CRRT) with or without concomitant Flolan® (epoprostenol sodium, prostacyclin analog) treatment. Flolan® was administered at a low dose (5 ng/kg/min) in the filters to prevent these from clotting and consequently, there was only a minor spill-over of Flolan® to the systemic circulation.

[12] = cited from earlier work
[13] = healthy volunteers, during infusion
[14] = healthy volunteers, 1-4 ng/kg/min infusion

Which results are given for `CC#CCC(C)[C@H](O)/C=C/[C@@H]1[C@H]2C/C(=C/CCCC(=O)O)C[C@H]2C[C@H]1O` (stereo partly drawn) [iloprost]?
circulating level of thrombomodulin ([1]; eight healthy male volunteers, continuing several hours after infusion): marked decrease; circulating level of Syndecan-1 [1, 13]: decreased; circulating level of protein C [1, 13]: decreased; bleeding events vs placebo [2]: no differences; hemodynamics vs placebo [2]: no differences; Multiplate or TEG vs placebo [3]: no differences; sE-selectin [4]: decreased significantly; intra- and post-operative RBC received (median) ([5]; 1 ng/kg/min i.v.): 0 mL; lactate post-operatively ([5]; 1 ng/kg/min i.v.): remained unchanged; post-operative hemoglobin (median) ([5]; 1 ng/kg/min i.v.): 6.7 mmol/L; volume of RBC from arrival at the post-operative ward and 6 h post-operatively ([5]; 1 ng/kg/min i.v.): 0 mL; 28-day mortality vs placebo ([5]; 1 ng/kg/min i.v. intra- and post-operative): no differences; TEG maximum clot firmness intra-operatively ([6]; Whipple surgery patients, 1 ng/kg/min i.v.): remained stable; nucleosome level, change intra- and postoperatively vs placebo [7]: increased significantly more intra- and postoperatively in placebo patients compared to iloprost patients; syndecan-1 level vs placebo [7]: trend towards higher levels of syndecan-1 in placebo patients compared to iloprost patients; thrombomodulin level, change intra- and postoperatively vs placebo [7]: increased significantly more intra- and postoperatively in placebo patients compared to iloprost patients

With `CCCCC[C@H](O)/C=C/[C@@H]1[C@H]2C/C(=C/CCCC(=O)O)O[C@H]2C[C@H]1O` [prostacyclin] as the compound, how does the “clot formation and platelet aggregation” value ([8]; acute critically ill patients (major abdominal surgery, PCI after AMI), 0.5-1 ng/kg/min infusion) read?
Its value is “neither influenced clot formation nor platelet aggregation”.

What about the “hemostasis, bleeding or adverse events related to impaired hemostasis” value ([8]; acute critically ill patients, low-dose infusion 0.5-1 ng/kg/min) of the same compound?
Its value is “does not compromise hemostasis or induce bleeding or adverse events related to impaired hemostasis”.

And the platelet aggregation ([8]; general conclusion, dose dependence)?
The platelet aggregation was “dose-dependently inhibits”.

What about the “hemostasis, bleeding or adverse events related to impaired hemostasis” value ([8]; healthy volunteers and acute critically ill patients, low-dose infusion up to 4 ng/kg/min) of the same compound?
The value was “does not compromise hemostasis or induce bleeding or adverse events related to impaired hemostasis”.

What about the “clot formation and platelet aggregation” value [8, 14] of the same compound?
Its value is “neither influenced clot formation nor platelet aggregation”.

What about the “anti-thrombotic effects (TEG, Multiplate)” value ([8]; low-dose infusion) of the same compound?
Its value is “no measurable anti-thrombotic effects”.

And the “blood pressure vs baseline” value [9]?
The value was “did not change”.

What about the “heart rate vs baseline” value [9] of the same compound?
Its value is “did not change”.

What about the “Multiplate and TEG values, baseline vs later” value (whole blood hemostasis) of the same compound?
The value was “no changes”.

What about the “circulating level of PAI-1” value [10] of the same compound?
The value was “declined”.

What about the “circulating level of antithrombin” value [10] of the same compound?
Its value is “decreased”.

And the “circulating level of thrombomodulin” value ([10]; continuing several hours after infusion)?
The value was “marked decrease”.

What about the “circulating level of protein C” value ([10]; hours after ceasing infusion) of the same compound?
Its value is “decreased”.

What about the 90-day mortality [11] of the same compound?
The 90-day mortality was 34%.

And the 365-day mortality [11]?
Its 365-day mortality is 38%.

And the “platelet count during CRRT” value [11]?
Its value is “increased”.

And the 30-day mortality [11]?
Its 30-day mortality is 21%.

What about the clot formation ([6]; patients undergoing major abdominal surgery, intra- and post-operative infusion) of the same compound?
The clot formation was “improved”.

And the systolic blood pressure ([12]; acute critically ill patients, doses from 5-10 ng/kg/min)?
Its systolic blood pressure is “lowers systolic blood pressure dose-dependently”.

What about the blood pressure [12, 14] of the same compound?
The blood pressure was “did not influence”.

And the diastolic blood pressure ([12]; human volunteers, dose of 8 ng/kg/min)?
Its diastolic blood pressure is “reduced”.

And the “effect on systolic or diastolic blood pressure” value ([12]; human volunteers, doses less than 8 ng/kg/min)?
The value was “no significant effect”.

What about the “effect on systolic blood pressure” value ([12]; human volunteers, doses up to 16 ng/kg/min) of the same compound?
Its value is “no effect”.

And the hemodynamic effects ([12]; low-dose infusion up to 4 ng/kg/min, healthy volunteers and acute critically ill patients)?
The hemodynamic effects was “negligible”.

And the blood pressure ([12]; patients with traumatic brain injury, AMI treated by PCI, septic shock or CABG surgery, 0.5-2 ng/kg/min infusion)?
Its blood pressure is “did not negatively influence”.

Which 90-day mortality [11] does the source give for heparin here?
Its 90-day mortality is 53%.

What about the 365-day mortality [11] of the same compound?
The 365-day mortality was 57%.

What about the “platelet count during CRRT” value [11] of the same compound?
The value was “declined”.

What about the 30-day mortality [11] of the same compound?
The 30-day mortality was 39%.

— patent publication US11714094B2, “Composition comprising prostacyclin andor analogues thereof for treatment of acute critically ill patients” (priority 2015, dated 2023)
